The source of these data is patent US8623855B2, “Azetidinone compounds and medical use thereof” (Zhejiang Hisun Pharmaceutical Co., Ltd., priority 2009, dated 2014).

For this test, the system named is hypercholesterolemia golden hamster model. The test can be described thus: In vivo pharmacodynamic screening in hypercholesterolemia model of golden hamster (plasma TC and LDL-C). The note with it: for inhibition in vivo at 0.4 mg/kg / inhibition in vivo at 2 mg/kg / inhibition in vivo at 10 mg/kg / inhibition in vivo at 5 mg/kg / inhibition in vivo at 1 mg/kg: Mesocricetus auratus, po, 168 h; for LDL-C after administration / TC after administration / LDL after administration: 1 week, plasma; for reduction of plasma TC and LDL-C levels (in words): significant statistical difference; for effect of lowering cholesterol (screening result in words): in vivo pharmacodynamic screening test, Ezetimibe as positive control; for efficacy compared with the positive control (in words): positive control Ezetimibe. Here is the method:
1. Establishment of Hypercholesterolemia Model of Golden Hamster:
The animals were subjected to acclimation feeding for 1 week with free feeding and drinking under a lighting condition of 10 h/14 h. On Day 8, the animals were raised with high fat feed (consisting of 0.5% cholesterol, 20% palm oil, 79.5% basal feed) for 1 week. Then, each animal was anesthetized by ether. After weighing, 0.5 ml blood was obtained from orbital vein, anticoagulated with heparin and centrifuged at 5000 rpm for 10 min. The plasma was collected and the levels of plasma TC (total cholesterol) and LDL-C (low density lipoprotein cholesterol) were determined by automatic biochemical analyzer. Animals with plasma TC of 9-15 mmol/L were selected as model animals (refer to the following reference for the method of animal modeling: Burrier, R. E., Smith, A. A., Mcgregor, D. G, Hoos, L. M., Zilli, D. L., Davis, H. R. The effect of acyl CoA: cholesterol acyltransferase inhibition on the uptake, esterification and secretion of cholesterol by the hamster small intestine. J. Pharm. Exp. Ther., 1995, 272, 156-163).
The animals were grouped according to TC and LDL-C levels and weight with 6 animals per group. Ezetimibe was used as positive control. The animals were intragastrically administered at a volume of 5 ml/kg for 1 week. Each animal was anesthetized by ether. After weighing, 0.5 ml blood was taken from orbital vein, anticoagulated with heparin, and centrifuged at 5000 rpm for 10 min. The plasma was collected and plasma TC (total cholesterol) and LDL-C (low density lipoprotein cholesterol) levels were determined by automatic biochemical analyzer to evaluate the efficacy of the compounds.

[1] abbreviates: Table 2, read-out: Reducing LDL-C %.
Where [2] appears, read: Table 2, read-out: Reducing TC %.
[3] abbreviates: Table 1, 0.4 mg/kg intragastric.
The mark [4] stands for this setting: golden hamster hypercholesterolemic model.
Setting [5] is: Table 12, read-out: Reducing LDL-C %.
Where [6] appears, read: Table 12, read-out: Reducing TC %.
Where [7] appears, read: Table 11, 10 mg/kg intragastric.
Where [8] appears, read: Table 11, baseline of group dosed 10 mg/kg.
Where [9] appears, read: Table 11, baseline of group dosed 3 mg/kg.
Setting [10] is: Table 10, read-out: Reducing LDL-C %.
Where [11] appears, read: Table 10, read-out: Reducing TC %.

Each structure is given as a SMILES string. Like-named read-outs stand apart in the source and are kept apart here.

In the case of `O=C1[C@H](C/C=C(/CO)c2ccc(F)cc2)[C@@H](c2ccc(O)cc2)N1c1ccc(F)cc1` [I-1(E), (3R,4S)-1-(4-fluorophenyl)-3-[(E)-3-(4-fluorophenyl)-4-hydroxy-but-2-enyl]-4-(4-hydroxyphenyl)azetidin-2-one], the “effect of lowering cholesterol (screening result in words)” value (from here on “effect of lowering cholesterol”) was “certain effect on cholesterol-lowering”. Besides, under setting [1], the inhibition in vivo at 0.4 mg/kg was -16.4%, the inhibition in vivo at 2 mg/kg was 0% and the inhibition in vivo at 10 mg/kg is 30.7%. Moreover, under setting [2], the inhibition in vivo at 0.4 mg/kg is -26.1%, the inhibition in vivo at 2 mg/kg was -20.9% and the inhibition in vivo at 10 mg/kg turned out to be 11.7%. Also, under setting [3], the LDL-C after administration was 2.84 ± 0.59 mmol/L and the TC after administration was found to be 12.42 ± 1.4 mmol/L. For the setting “Table 1, 2 mg/kg intragastric”, this compound displayed an LDL-C after administration of 2.21 ± 0.37 mmol/L and a TC after administration of 11.19 ± 0.69 mmol/L. Further, under “Table 1, 10 mg/kg intragastric”, the LDL-C after administration is 1.74 ± 0.62 mmol/L and the TC after administration worked out at 8.7 ± 0.93 mmol/L. The compound further yielded an LDL-C before administration (Table 1, baseline of group dosed 0.4 mg/kg) of 2.44 ± 0.46 mmol/L. For the setting “Table 1, baseline of group dosed 2 mg/kg”, this compound had an LDL-C before administration of 2.21 ± 0.47 mmol/L. Where the note is “Table 1, baseline of group dosed 10 mg/kg”, this compound yielded an LDL-C before administration of 2.51 ± 0.91 mmol/L. Besides, under setting [4], the “reduction of plasma TC and LDL-C relative to the amount reduced by Ezetimibe and I-1 (Z)” value was “less than 50%”; the “reduction of plasma TC and LDL-C levels (in words)” value (“reduction … (in words)” below) was “can also lower plasma TC and LDL-C levels”.

As for `COc1ccc([C@@H]2[C@@H](C/C=C(\CO)c3ccc(F)cc3)C(=O)N2c2ccc(F)cc2)cc1` [I-2(Z)], the “effect of lowering cholesterol” value is on record as “have the effect of lowering cholesterol” and the “efficacy compared with the positive control (in words)” value is “more similar to the positive control”. Also, the inhibition in vivo at 5 mg/kg under setting [5] was found to be 63.4%. Also, the inhibition in vivo at 5 mg/kg under setting [6] amounted to 62.2%. Further, under setting [7], the LDL-C after administration is listed as 1.01 and the TC after administration stood at 4.82. Under setting [8], this compound registered an LDL-C before administration of 2.76 ± 0.43 and a TC before administration of 12.74 ± 1.32. Also, the “reduction … (in words)” value under setting [4] was “can significantly reduce the plasma TC and LDL-C levels”.

In the case of `O=C1[C@H](C/C=C(\CO)c2ccc(F)cc2)[C@@H](c2ccc(Oc3ccccc3)cc2)N1c1ccc(F)cc1` [I-3(Z)], the “effect of lowering cholesterol” value is recorded as “have the effect of lowering cholesterol” and the “efficacy compared with the positive control (in words)” value is reported as “more similar to the positive control”. The inhibition in vivo at 10 mg/kg under setting [5] worked out at 66.3%. Also, the inhibition in vivo at 10 mg/kg under setting [6] is 50.8%. In addition, under setting [7], the LDL-C after administration stood at 1.14 and the TC after administration is recorded as 6.23. Moreover, under setting [8], the LDL-C before administration amounted to 3.38 ± 0.84 and the TC before administration came to 12.67 ± 1.35. The “reduction … (in words)” value under setting [4] was “can significantly reduce the plasma TC and LDL-C levels”.

Turning to `O=C1[C@H](C/C=C(\CO)c2ccc(F)cc2)[C@@H](c2ccc(OCc3ccccc3)cc2)N1c1ccc(F)cc1` [I-4(Z)], the “effect of lowering cholesterol” value was “have the effect of lowering cholesterol” and the “efficacy compared with the positive control (in words)” value is “more similar to the positive control”. The inhibition in vivo at 5 mg/kg under setting [5] amounted to 53.5%. Also, under setting [6], the inhibition in vivo at 5 mg/kg amounted to 49.1%. For the setting “Table 11, 3 mg/kg intragastric”, this compound came in with an LDL-C after administration of 1.51 and a TC after administration of 6.48. For the same compound, under setting [9], the LDL-C before administration turned out to be 3.25 ± 0.79 and the TC before administration is 12.73 ± 1.27. Further, the “reduction … (in words)” value under setting [4] is “can significantly reduce the plasma TC and LDL-C levels”.

For the compound `O=C(Oc1ccc([C@@H]2[C@@H](C/C=C(\CO)c3ccc(F)cc3)C(=O)N2c2ccc(F)cc2)cc1)c1ccccc1` [I-5(Z), (3R,4S)-4-(4-benzoyloxyphenyl)-1-(4-fluorophenyl)-3-[(Z)-3-(4-fluorophenyl)-4-hydroxy-but-2-enyl]azetidin-2-one], the “effect of lowering cholesterol” value is given as “have the effect of lowering cholesterol”. Besides, under setting [10], the inhibition in vivo at 1 mg/kg stood at 30.7% and the inhibition in vivo at 10 mg/kg was found to be 68.1%. In addition, under setting [11], the inhibition in vivo at 1 mg/kg is 31.2% and the inhibition in vivo at 10 mg/kg turned out to be 62.7%. For the same compound, for the setting “Table 9, 1 mg/kg intragastric”, the LDL after administration amounted to 2.18 mmol/L and the TC after administration was 10.55 mmol/L. For the setting “Table 9, 10 mg/kg intragastric”, this compound gave an LDL after administration of 1.0 mmol/L and a TC after administration of 5.73 mmol/L. Moreover, the “reduction … (in words)” value under setting [4] is “can significantly reduce the plasma TC and LDL-C levels”.

As to `CC(=O)Oc1ccc([C@@H]2[C@@H](C/C=C(\CO)c3ccc(F)cc3)C(=O)N2c2ccc(F)cc2)cc1` [I-6(Z), (3R,4S)-4-(4-acetoxyphenyl)-1-(4-fluorophenyl)-3-[(Z)-3-(4-fluorophenyl)-4-hydroxy-but-2-enyl]azetidin-2-one], the “effect of lowering cholesterol” value is recorded as “have the effect of lowering cholesterol” and the “efficacy compared with the positive control (in words)” value is “more similar to the positive control”. For the same compound, under setting [10], the inhibition in vivo at 1 mg/kg was determined as 50.2% and the inhibition in vivo at 10 mg/kg came out at 70.4%. Besides, under setting [11], the inhibition in vivo at 1 mg/kg was found to be 51.5% and the inhibition in vivo at 10 mg/kg was 65.6%. Also, where the note is “Table 9, 1 mg/kg intragastric”, the LDL after administration is listed as 1.57 mmol/L and the TC after administration came to 7.45 mmol/L. Moreover, where the note is “Table 9, 10 mg/kg intragastric”, the LDL after administration was found to be 0.93 mmol/L and the TC after administration was found to be 5.28 mmol/L. The “reduction … (in words)” value under setting [4] is “can significantly reduce the plasma TC and LDL-C levels”.

On to `CC(=O)OC/C(=C\C[C@H]1C(=O)N(c2ccc(F)cc2)[C@@H]1c1ccc(OC(C)=O)cc1)c1ccc(F)cc1` [I-11(Z), (3R,4S)-3-[(Z)-4-acetoxy-3-(4-fluorophenyl)-but-2-enyl]-4-(4-acetoxyphenyl)-1-(4-fluorophenyl)azetidin-2-one], for which the “effect of lowering cholesterol” value is “have the effect of lowering cholesterol”. Moreover, under setting [10], the inhibition in vivo at 1 mg/kg stood at 47.7% and the inhibition in vivo at 10 mg/kg stood at 59.2%. For the same compound, under setting [11], the inhibition in vivo at 1 mg/kg is 48% and the inhibition in vivo at 10 mg/kg turned out to be 60.2%. Where the note is “Table 9, 1 mg/kg intragastric”, the LDL after administration worked out at 1.65 mmol/L and the TC after administration was 7.98 mmol/L. Under “Table 9, 10 mg/kg intragastric”, this compound registered an LDL after administration of 1.28 mmol/L and a TC after administration of 6.11 mmol/L. Also, the “reduction … (in words)” value under setting [4] is “can significantly reduce the plasma TC and LDL-C levels”.
